From patent US20090137652A1, “METHODS FOR NEUROPROTECTION” (priority 2005, published 2009)
Marks after values point to notes of the source that are not given here.

Legend:
PC12 cells = assay: PC12 cell serum withdrawal model, MTS cell survival assay; assay type: cell-based
Source text: Serum withdrawal is a cytotoxic environmental challenge that results in cell death in cultured cell lines as well as in primary cells of various tissue origins, including nerve cells. In particular, pheochromocytoma (PC) 12 cells have been widely employed as an in vitro neuronal cell model for a wide variety of neurodegenerative and cell death related disorders (Muriel, et al, Mitochondrial free calcium levels (Rhod-2 fluorescence) and ultrastructural alterations in neuronally differentiated PC12 cells during ceramide-dependent cell death, J. Comp. Neurol., 2000, 426(2), 297-315; Dermitzaki, et al, Opioids transiently prevent activation of apoptotic mechanisms following short periods of serum withdrawal, J. Neurochem., 2000, 74(3), 960-969; Carlile, et al, Reduced apoptosis after nerve growth factor and serum withdrawal: conversion of tetrameric glyceraldehyde-3-phosphate dehydrogenase to a dimer, Mol. Pharmacol., 2000, 57(1), 2-12). PC12 cells were cultured in sterile media (RPMI 1640) supplemented with 10% heat-inactivated horse serum and 5% fetal bovine serum (FBS). The culture medium also contained Penicillin-Streptomycin-Neomycin antibiotic (50 µg, 50 µg, 100 µg, respectively). Medium was exchanged every other day and the cells were passed in log phase near confluence.
The control cells were cultured in regular media without any treatment. An enantiomer of Formula 7 or Formula 8 (10 µM) was mixed well in the medium and then applied to the cells. For the 2 day assay, an enantiomer of Formula 7 or Formula 8 (10 µM) was only applied to the cells once at the time of serum withdrawal. For the 7 day assay, an enantiomer of Formula 7 or Formula 8 (10. mu.M) was applied to the cells at the time of serum withdrawal and every 48 hr thereafter when cells were changed with fresh new serum-free medium. In the serum withdrawal group, the cells were cultured in serum-free medium with no additional enantiomer of Formula 7 or Formula 8. Cell survival was determined by the 3-(4,5-dimethylthiazol-2-yl)-5-(3-[…])-2-(4-sulfophenyl)-2H-tetrazolium inner salt (MTS) assay at 2 or 7 days after serum withdrawal.
At the end of the experiment, cells were washed with fresh medium and incubated with MTS solution in a humidified 37° C. with 5% CO2 incubator for 1.5 hr. After the incubation period, the cells were immediately analyzed using a Softmax program (Molecular Devices). […] The assay is based on the cellular conversion of the tetrazolium salt, MTS, into a formazan that is soluble in tissue culture medium and measured directly at 490 nm in 96-well assay plates. The absorbance is directly proportional to the number of living cells in culture. The arbitrary absorbance reading in control cells is expressed as 100% survival rate.

[1] = system: rats subjected to li-pilo SE; assay: Mortality over the first 48 h after lithium-pilocarpine SE (Example 2); assay type: in vivo, rat
Description: Adult male Sprague-Dawley rats provided by Janvier Breeding Center (Le Genest-St-Isle, France) were housed under controlled, uncrowded standard conditions at 20-22° C. (light/dark cycle, 7.00 a.m.-7.00 p.m. lights on), with food and water available ad libitum. All animal experimentation was performed in accordance with the rules of the European Communities Council Directive of Nov. 24, 1986 (86/609/EEC), and the French Department of Agriculture (License No 67-97).
All rats received lithium chloride (3 meq/kg, i.p., Sigma, St Louis, Mo., U.S.A.) and about 20 h later, all animals received also methylscopolamine bromide (1 mg/kg, s.c., Sigma) that was administered to limit the peripheral effects of the convulsant. SE was induced by injecting pilocarpine hydrochloride (25 mg/kg, s.c., Sigma) 30 min after methylscopolamine. The effects of increasing doses of TC (RWJ) were studied in 5 groups of rats. […] The control group received vehicle instead of pilocarpine and TC. The rats surviving SE were then injected about 10 h after the first TC injection with a second i.p. injection of 1.25 mg/kg DZP for the DZP group or of the same dose of TC as in the morning and were maintained under a twice daily TC treatment (s.c.) for 6 additional days while DZP rats received a vehicle injection.
A total number of 143 Sprague-Dawley rats weighing 250-330 g were subjected to lithium-pilocarpine (Li-pilo)-induced SE. […] The behavioral characteristics of SE were identical in both li-pilo-DZP and li-pilo-TC groups. Within 5 min after pilocarpine injection, rats developed diarrhea, piloerection and other signs of cholinergic stimulation. […] Recurrent seizures started around 15-20 min after pilocarpine administration. These seizures which associated episodes of head and bilateral forelimb myoclonus with rearing and falling progressed to SE at about 35-40 min after pilocarpine, as previously described (Turski et al., 1989; Dube et al., 2001; Andre et al., 2003). The control group not subjected to SE and receiving lithium and saline was composed of 20 rats.

[2] = system: rats subjected to li-pilo SE; assay: Latency to and frequency of spontaneous seizures by video recording, lithium-pilocarpine model (Example 2); assay type: in vivo, rat; conditions: pilo-TC90 (90 mg/kg), Non epileptic subgroup (n = 5), no seizure over 150 days post-SE

Row | Structure (SMILES) | 2 Day Survival Rate (PC12 cells; 10 µM applied once at serum withdrawal, MTS assay 2 days after serum withdrawal, control 100, serum-free 49.6) | 7 Day Survival Rate (PC12 cells; 10 µM at serum withdrawal and every 48 hr, MTS assay 7 days after serum withdrawal, control 100, serum-free 23.8) | degree of mortality over the first 48 h after SE ([1]; TC30 (30 mg/kg i.p.), group devoted to cell counting at 14 days, 4/12) | degree of mortality over the first 48 h after SE ([1]; TC30, group devoted to latency to SRS and late cell counting, 3/11) | degree of mortality over the first 48 h after SE ([1]; TC60 (60 mg/kg i.p.), group devoted to cell counting at 14 days, 1/12) | degree of mortality over the first 48 h after SE ([1]; TC60, group devoted to latency to SRS and late cell counting, 0/10) | degree of mortality over the first 48 h after SE ([1]; TC90 (90 mg/kg i.p.), group devoted to cell counting at 14 days, 0/10) | degree of mortality over the first 48 h after SE ([1]; TC90, group devoted to latency to SRS and late cell counting, 0/11) | degree of mortality over the first 48 h after SE ([1]; TC120 (120 mg/kg i.p.), group devoted to cell counting at 14 days, 4/12) | degree of mortality over the first 48 h after SE ([1]; TC120, group devoted to latency to SRS and late cell counting, 0/9) | Latency to the first spontaneous seizure [2] | degree of mortality over the first 48 h after SE ([1]; DZP 2.5 mg/kg i.m., group devoted to cell counting at 14 days, 4/11) | degree of mortality over the first 48 h after SE ([1]; DZP 2.5 mg/kg i.m., group devoted to latency to SRS and late cell counting, 1/14)
1 | NC(=O)OC[C@@H](O)c1ccccc1Cl [Formula 7] | 69.4 ± 1.7^1% | 79.9 ± 4.0^2% | 33% | 27% | 8% | 0% | 0% | 0% | 33% | 0% | 150** °° days |  | 
2 | CN1C(=O)CN=C(c2ccccc2)c2cc(Cl)ccc21 [DZP, diazepam, reference compound] |  |  |  |  |  |  |  |  |  |  |  | 36% | 7%
